Data on 46 compounds can be found in US20100056507A1, “PHENYL DERIVATIVES AND THEIR USE AS A MEDICAMENT” (IPSEN PHARMA S.A.S., priority 2006, published 2010).

Counter-ions that a name gives are not always drawn. Like-named read-outs stand apart in the source and are kept apart here.

The target in the assay is T1, human CB2 receptors (Homo sapiens, UniProt P34972).
T1 construct: expressed in transfected cells; membranes used
Kind of assay: Affinity for the human CB2 cannabinoid receptors: inhibition of [3H]-CP55940 binding to transfected CHO-K1 cell membranes. To be noted: [3H]-CP55940 1 nM, CHO-K1 membranes expressing human CB2, Cheng-Prusoff correction. The protocol: The affinity of the compounds of the invention for the human CB2 receptors is determined by measuring the inhibition of the binding of [^3H]-CP55940 to transfected CHO-K1 cell membrane preparations.
The cells are collected with 0.5 mM of EDTA and centrifuged at 500 g for 5 minutes at 4° C. The pellet is re-suspended in phosphate buffered saline medium (PBS) and centrifuged at 500 g for 5 minutes at 4° C. The pellet is re-suspended in a Tris 50 mM buffer medium at pH 7.4 and centrifuged at 500 g for 5 minutes at 4° C. The cells are lysed by sonication and centrifuged at 39,000 g for 10 minutes at 4° C. The pellet is re-suspended in the Tris 50 mM buffer medium at pH 7.4 and centrifuged at 50,000 g for 10 minutes at 4° C. The membranes obtained in this last pellet are stored at −80° C.
Measurement of the competitive inhibition of the binding of the [^3H]-CP55940 to the CB2 receptors is carried out in duplicate using 96-well polypropylene plates. The cell membranes (10 μg of proteins/well) are incubated with the [^3H]-CP55940 (1 nM) for 60 minutes at 25° C. in a Tris-HCl 50 mM buffer medium, pH 7.4, comprising 0.1% bovine serum albumin (BSA), 5 mM of MgCl2, and 50 μg/ml of bacitracin.
The filters are washed with Tris-HCl 50 mM buffer, pH 7.4 at 0-4° C. and the radioactivity present is determined using a counter (Packard Top Count).
The specific binding is obtained by subtracting the non-specific binding (determined in the presence of 0.1 μM of WIN55212-2 from the total binding). The data are analyzed by computer-assisted non-linear regression (MDL). For each test, a Cheng-Prusoff correction is made in order to convert the IC50 to the inhibition constant, Ki.
where [L] is the concentration of the radioligand used in the test and Kd is the radioligand equilibrium disassociation constant.

T1 sequence (P34972 whole entry): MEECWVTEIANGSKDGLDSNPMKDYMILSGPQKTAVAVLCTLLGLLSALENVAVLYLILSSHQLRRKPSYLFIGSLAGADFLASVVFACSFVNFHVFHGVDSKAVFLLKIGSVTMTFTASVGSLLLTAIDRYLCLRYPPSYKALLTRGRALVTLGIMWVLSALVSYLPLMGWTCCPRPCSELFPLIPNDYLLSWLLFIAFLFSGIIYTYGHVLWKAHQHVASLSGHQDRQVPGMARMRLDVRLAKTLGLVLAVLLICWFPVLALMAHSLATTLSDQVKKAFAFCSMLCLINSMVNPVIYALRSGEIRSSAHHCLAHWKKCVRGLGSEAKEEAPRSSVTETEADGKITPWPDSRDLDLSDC

As usually defined, the Ki is the equilibrium dissociation constant of an inhibitor or competing ligand from its target. Turning to `CC1(C)CC(C)(C)c2cc(C(=O)OCCc3ccc(NC(=O)C4CCC4)cc3)ccc21` [Example 37], the inhibition constant Ki is less than 0.5 µM (read-out: Ki < 0.5 μM) and less than 5 µM (read-out: Ki < 5 μM).
For `CC(C)NC(=O)Nc1ccc(CCOC(=O)c2ccc3c(c2)C(C)(C)CCC3(C)C)cc1` [Example 73] the same measures were less than 0.5 µM and less than 5 µM.
For `CC1(C)CCC(C)(C)c2cc(C(=O)OCCc3ccc(NC(=O)CC4CCCC4)cc3)ccc21` [Example 66] the same measures were less than 0.5 µM and less than 5 µM.
For `CC(C)(C)c1cc(-c2nnc(NCc3ccc(/N=C(/N)c4cccs4)cc3)o2)cc(C(C)(C)C)c1` [Example 27] the same measures were less than 0.5 µM and less than 5 µM.
As to `CC1(C)CCC(C)(C)c2cc(C(=O)OCCc3ccc(NC(=O)C4CCC4)cc3)ccc21` [Example 1, 2-{4-[(cyclobutylcarbonyl)amino]phenyl}ethyl 5,5,8,8-tetramethyl-5,6,7,8-tetrahydronaphthalene-2-carboxylate], the Ki reads like this: (read-out: Ki < 0.5 μM) less than 0.5 µM; (read-out: Ki < 5 μM) less than 5 µM.
For `C=CCNC(=O)Nc1ccc(CNc2nnc(-c3cc(C(C)(C)C)cc(C(C)(C)C)c3)o2)cc1` [Example 24] the same measures were less than 0.5 µM and less than 5 µM.
`CC(C)(C)C(=O)Nc1ccc(CCOC(=O)c2ccc3c(c2)C(C)(C)CCC3(C)C)cc1` [Example 57]: the Ki reads like this: (read-out: Ki < 0.5 μM) less than 0.5 µM; (read-out: Ki < 5 μM) less than 5 µM.
On to `CCCNC(=S)Nc1ccc(CCOC(=O)c2ccc3c(c2)C(C)(C)CCC3(C)C)cc1` [Example 77], for which the Ki by setting is: (read-out: Ki < 0.5 μM) less than 0.5 µM; (read-out: Ki < 5 μM) less than 5 µM.
For `CC1(C)CCC(C)(C)c2cc(C(=O)OCCc3ccc(NS(C)(=O)=O)cc3)ccc21` [Example 69, 2-{4-[(methylsulphonyl)amino]phenyl}ethyl 5,5,8,8-tetramethyl-5,6,7,8-tetrahydronaphthalene-2-carboxylate] the same measures were less than 0.5 µM and less than 5 µM.
Take `CC(C)(C)c1cc(-c2nnc(CCc3ccc(/N=C(/N)c4cccs4)cc3)o2)cc(C(C)(C)C)c1` [Example 22]: the Ki reads like this: (read-out: Ki < 0.5 μM) less than 0.5 µM; (read-out: Ki < 5 μM) less than 5 µM.
Take `CCCC(=O)Nc1ccc(CCOC(=O)c2ccc3c(c2)C(C)(C)CCC3(C)C)cc1` [Example 94]: the Ki reads like this: (read-out: Ki < 0.5 μM) less than 0.5 µM; (read-out: Ki < 5 μM) less than 5 µM.
For `O=C(OCCc1ccc(NC(=O)C2CCC2)cc1)c1ccc2c(c1)CCC2` [Example 11] the same measures were less than 0.5 µM and less than 5 µM.
For `CCCNC(=O)Nc1ccc(CCc2nnc(-c3cc(C(C)(C)C)cc(C(C)(C)C)c3)o2)cc1` [Example 18] the same measures were less than 0.5 µM and less than 5 µM.
For `CC(C)(C)NC(=O)Nc1ccc(CCOC(=O)c2ccc3c(c2)C(C)(C)CCC3(C)C)cc1` [Example 74] the same measures were less than 0.5 µM and less than 5 µM.
For `CC1(C)CCC(C)(C)c2cc(-c3nnc(CCc4ccc(NC(=O)C5CCC5)cc4)s3)ccc21` [Example 51], the Ki (read-out: Ki < 0.5 μM) was less than 0.5 µM and the Ki (read-out: Ki < 5 μM) was less than 5 µM.
For the compound `CCCCC(=O)Nc1ccc(CCOC(=O)c2ccc3c(c2)C(C)(C)CCC3(C)C)cc1` [Example 60], the inhibitory constant (Ki) is less than 0.5 µM (read-out: Ki < 0.5 μM) and less than 5 µM (read-out: Ki < 5 μM).
For `CC1(C)CCC(C)(C)c2cc(C(=O)OCCc3ccc(NC(=O)Cc4ccco4)cc3)ccc21` [Example 93] the same measures were less than 0.5 µM and less than 5 µM.
For `CC1(C)CCC(C)(C)c2cc(C(=O)OCCc3ccc(NC(=O)Cc4cccs4)cc3)ccc21` [Example 68] the same measures were less than 0.5 µM and less than 5 µM.
For `CCS(=O)(=O)Nc1ccc(CCOC(=O)c2ccc3c(c2)C(C)(C)CCC3(C)C)cc1` [Example 70] the same measures were less than 0.5 µM and less than 5 µM.
As to `CC1(C)CCC(C)(C)c2cc(C(=O)OCCc3ccc(NC(=O)C4CCCC4)cc3)ccc21` [Example 64], the Ki reads like this: (read-out: Ki < 0.5 μM) less than 0.5 µM; (read-out: Ki < 5 μM) less than 5 µM.
Regarding `CC1(C)CCC(C)(C)c2cc(-c3nnc(CCc4ccc(/N=C(/N)c5cccs5)cc4)o3)ccc21` [Example 6, N′-(4-{2-[5-(5,5,8,8-tetramethyl-5,6,7,8-tetrahydronaphthalen-2-yl)-1,3,4-oxadiazol-2-yl]ethyl}phenyl)thiophene-2-carboximidamide hydrochloride], the inhibition constant Ki (read-out: Ki < 5 μM) was less than 5 µM.
In the case of `CC1CC1C(=O)Nc1ccc(CCOC(=O)c2ccc3c(c2)C(C)(C)CCC3(C)C)cc1` (stereo not shown) [Example 88], the Ki by setting is: (read-out: Ki < 0.5 μM) less than 0.5 µM; (read-out: Ki < 5 μM) less than 5 µM.
For `COCC(=O)Nc1ccc(CCOC(=O)c2ccc3c(c2)C(C)(C)CCC3(C)C)cc1` [Example 85] the same measures were less than 0.5 µM and less than 5 µM.
For `CCNC(=O)Nc1ccc(CCOC(=O)c2ccc3c(c2)C(C)(C)CCC3(C)C)cc1` [Example 81], the Ki is less than 0.5 µM (read-out: Ki < 0.5 μM) and less than 5 µM (read-out: Ki < 5 μM).
For `COCCNC(=S)Nc1ccc(CCOC(=O)c2ccc3c(c2)C(C)(C)CCC3(C)C)cc1` [Example 79] the same measures were less than 0.5 µM and less than 5 µM.
As for `C=CCNC(=O)Nc1ccc(CCc2nnc(-c3ccc4c(c3)C(C)(C)CCC4(C)C)o2)cc1` [Example 32], the inhibition constant Ki is, setting by setting: (read-out: Ki < 0.5 μM) less than 0.5 µM; (read-out: Ki < 5 μM) less than 5 µM.
For `O=C(OCCc1ccc(NC(=O)C2CCC2)cc1)c1ccc2c(c1)CCCC2` [Example 15] the same measures were less than 0.5 µM and less than 5 µM.
For `C=CCNC(=O)Nc1ccc(CCc2nnc(-c3cc(C(C)(C)C)cc(C(C)(C)C)c3)s2)cc1` [Example 47] the same measures were less than 0.5 µM and less than 5 µM.
Take `CCC(=O)Nc1ccc(CCOC(=O)c2ccc3c(c2)C(C)(C)CCC3(C)C)cc1` [Example 55]: the inhibitory constant (Ki) (read-out: Ki < 0.5 μM) is less than 0.5 µM and the inhibition constant (Ki) (read-out: Ki < 5 μM) was less than 5 µM.
For `C=CCNC(=O)Nc1ccc(CCOC(=O)c2ccc3c(c2)C(C)(C)CCC3(C)C)cc1` [Example 30] the same measures were less than 0.5 µM and less than 5 µM.
Regarding `Cc1cc2c(cc1C(=O)OCCc1ccc(NC(=O)C3CCC3)cc1)C(C)(C)CC(C)C2(C)C` (stereo not shown) [Example 45], the Ki (read-out: Ki < 0.5 μM) was less than 0.5 µM and the Ki (read-out: Ki < 5 μM) was less than 5 µM.
Regarding `O=C(OCCc1ccc(NC(=O)C2CCC2)cc1)c1ccc2c(c1)C(=O)CC2` [Example 38], under “read-out: Ki < 5 μM”, the Ki was less than 5 µM.
As to `C=CCNC(=O)Nc1ccc(Cc2noc(-c3cc(C(C)(C)C)cc(C(C)(C)C)c3)n2)cc1` [Example 20], the Ki by setting is: (read-out: Ki < 0.5 μM) less than 0.5 µM; (read-out: Ki < 5 μM) less than 5 µM.
Turning to `CC(C)(C)c1cc(-c2nc(Cc3ccc(/N=C(/N)c4cccs4)cc3)no2)cc(C(C)(C)C)c1` [Example 5], the Ki reads like this: (read-out: Ki < 0.5 μM) less than 0.5 µM; (read-out: Ki < 5 μM) less than 5 µM.
For the compound `CC(=O)Nc1ccc(CCOC(=O)c2ccc3c(c2)C(C)(C)CCC3(C)C)cc1` [Example 54], the Ki (read-out: Ki < 0.5 μM) is less than 0.5 µM and the Ki (read-out: Ki < 5 μM) is less than 5 µM.
In the case of `CC1(C)CCC(C)(C)c2cc(-c3nnc(NCc4ccc(/N=C(/N)c5cccs5)cc4)o3)ccc21` [Example 28], for the setting “read-out: Ki < 5 μM”, the inhibitory constant (Ki) is less than 5 µM.
Take `CC1(C)CCC(C)(C)c2cc(C(=O)OCCc3ccc(NC(=S)NCc4ccco4)cc3)ccc21` [Example 80]: the Ki runs as follows: (read-out: Ki < 0.5 μM) less than 0.5 µM; (read-out: Ki < 5 μM) less than 5 µM.
For `C=CCNC(=O)Nc1ccc(CCc2nnc(-c3ccc4c(c3)C(C)(C)CCC4(C)C)s2)cc1` [Example 52] the same measures were less than 0.5 µM and less than 5 µM.
For `CCCNC(=O)Nc1ccc(CCc2nc(-c3ccc4c(c3)C(C)(C)CCC4(C)C)co2)cc1` [Example 41] the same measures were less than 0.5 µM and less than 5 µM.
For `CC1(C)CCC(C)(C)c2cc(C(=O)OCCc3ccc(NC(=O)C4CC4(C)C)cc3)ccc21` (stereo not shown) [Example 89] the same measures were less than 0.5 µM and less than 5 µM.
Consider `CC1(C)CCC(C)(C)c2cc(-c3nnc(CCc4ccc(NC(=O)C5CCC5)cc4)o3)ccc21` [Example 31], for which the Ki by setting is: (read-out: Ki < 0.5 μM) less than 0.5 µM; (read-out: Ki < 5 μM) less than 5 µM.
For the compound `CCCCNC(=O)Nc1ccc(CCOC(=O)c2ccc3c(c2)C(C)(C)CCC3(C)C)cc1` [Example 83], the inhibition constant Ki runs as follows: (read-out: Ki < 0.5 μM) less than 0.5 µM; (read-out: Ki < 5 μM) less than 5 µM.
For `COCCC(=O)Nc1ccc(CCOC(=O)c2ccc3c(c2)C(C)(C)CCC3(C)C)cc1` [Example 86] the same measures were less than 0.5 µM and less than 5 µM.
Regarding `CC1(C)CCC(C)(C)c2cc(C(=O)OCCc3ccc(NC(=O)NCc4ccccc4)cc3)ccc21` [Example 84], the Ki (read-out: Ki < 0.5 μM) is less than 0.5 µM and the inhibitory constant (Ki) (read-out: Ki < 5 μM) was less than 5 µM.
For `CCCNC(=O)Nc1ccc(Cc2nnc(-c3cc(C(C)(C)C)cc(C(C)(C)C)c3)o2)cc1` [Example 14] the same measures were less than 0.5 µM and less than 5 µM.
Turning to `O=C(OCCc1ccc(NC(=O)C2CCC2)cc1)c1ccc2c(c1)OCCO2` [Example 4], the Ki (read-out: Ki < 5 μM) is less than 5 µM.
